Laboratory results: patent publication US20140140946A1, “SKIN PREPARATION COMPOSITION FOR EXTERNAL USE WITH EXCELLENT ANTIBACTERIAL AND ANTIFUNGAL EFFECTS” (priority 2010, published 2014)

How the values were obtained:
Format in all cases: cell-based
[1] = tested on: Pityrosporum ovale (Malassezia furfur); experiment: Growth of Pityrosporum ovale in Leeming & Notman medium; details: 32° C. for 3 days; FIG. 4; trisodium phosphate at pH 8.0
Method: Each of citric acid (pH 4.0), trisodium phosphate (TSP, pH 8.4) and citric acid+trisodium phosphate (pH 5.0) was added to Leeming & Notman medium of 1 L containing glucose 10 g, peptone 10 g, bile salts 8 g, yeast extract 2 g, glycerol monostearate 0.5 g, glycerol 10 ml and Tween 80 (1.5%) 15 ml, and 0.1 ml of Pityrosporum ovale (Malassezia furfur), which is a kind of fungi known for causing atopy, was injected to each group.

[2] = tested on: Streptococcus mutans (KCTC 3065); experiment: Growth of Streptococcus mutans in BHI broth; details: citric acid 0.4 g, trisodium phosphate 0.64 g, pH 6.0
Source text: (§1) The following control group is a broth not injected with the bacteria.

[3] = tested on: S. salivarius (KCTC 3960); experiment: Growth of S. salivarius in BHI broth; details: citric acid 0.4 g, trisodium phosphate 0.64 g, pH 6.0
Source text: as §1

[4] = tested on: Peptostreptococcus asaccharolyticus (KTCC 3321); experiment: Growth of Peptostreptococcus asaccharolyticus in Wilkins Chalgren Anaerobe Broth; details: citric acid 0.8 g, trisodium phosphate 1.85 g, pH 6.0
Source text: as §1

[5] = tested on: Streptococcus mitis (KCTC 3556); experiment: Growth of Streptococcus mitis in BHI broth; details: citric acid 0.4 g, trisodium phosphate 0.64 g, pH 6.0
Source text: as §1

Streptococcus sanguinis = experiment: Growth of Streptococcus sanguinis in BHI broth; details: citric acid 0.4 g, trisodium phosphate 0.64 g, pH 6.0
Source text: as §1

O=P([O-])([O-])[O-].[Na+].[Na+].[Na+] [trisodium phosphate]
growth of P. ovale [1]: significantly suppressed

HCl [Broth D]
Absorbance (OD) ([2]; 4 hrs): 0.032 OD | Absorbance (OD) ([2]; 6 hrs): 0.092 OD | Absorbance (OD) ([2]; 8 hrs): 0.141 OD | Absorbance (OD) ([2]; 10 hrs): 0.200 OD | Absorbance (OD) ([2]; 12 hrs): 0.244 OD | Absorbance (OD) ([2]; 14 hrs): 0.212 OD | Absorbance (OD) ([2]; 16 hrs): 0.235 OD | Absorbance (OD) ([2]; 18 hrs): 0.210 OD | Absorbance (OD) ([3]; 4 hrs): 0.011 OD | Absorbance (OD) ([3]; 6 hrs): 0.068 OD | Absorbance (OD) ([3]; 8 hrs): 0.167 OD | Absorbance (OD) ([3]; 10 hrs): 0.192 OD | Absorbance (OD) ([3]; 12 hrs): 0.224 OD | Absorbance (OD) ([3]; 14 hrs): 0.234 OD | Absorbance (OD) ([3]; 16 hrs): 0.319 OD | Absorbance (OD) ([3]; 18 hrs): 0.224 OD | Absorbance (OD) ([4]; 4 hrs): 0.005 OD | Absorbance (OD) ([4]; 8 hrs): 0.010 OD | Absorbance (OD) ([4]; 12 hrs): 0.002 OD | Absorbance (OD) ([4]; 16 hrs): 0.008 OD | Growth observed (in words) ([4]; 20 hrs): No change | Growth observed (in words) ([4]; 24 hrs): No change | Growth observed (in words) ([4]; 56 hrs): Full growth | Absorbance (OD) ([5]; 4 hrs): 0.054 OD | Absorbance (OD) ([5]; 6 hrs): 0.104 OD | Absorbance (OD) ([5]; 8 hrs): 0.205 OD | Absorbance (OD) ([5]; 10 hrs): 0.244 OD | Absorbance (OD) ([5]; 12 hrs): 0.218 OD | Absorbance (OD) ([5]; 14 hrs): 0.127 OD | Absorbance (OD) ([5]; 16 hrs): 0.089 OD | Absorbance (OD) ([5]; 18 hrs): 0.092 OD | Absorbance (OD) (Streptococcus sanguinis; 4 hrs): 0.018 OD | Absorbance (OD) (Streptococcus sanguinis; 6 hrs): 0.039 OD | Absorbance (OD) (Streptococcus sanguinis; 8 hrs): 0.118 OD | Absorbance (OD) (Streptococcus sanguinis; 10 hrs): 0.127 OD | Absorbance (OD) (Streptococcus sanguinis; 12 hrs): 0.283 OD | Absorbance (OD) (Streptococcus sanguinis; 14 hrs): 0.303 OD | Absorbance (OD) (Streptococcus sanguinis; 16 hrs): 0.203 OD | Absorbance (OD) (Streptococcus sanguinis; 18 hrs): 0.199 OD
